Results on 14 molecules are retold here after ChEMBL document CHEMBL1201862, “PubChem BioAssay data set” (2004).

Active and inactive are the calls of the source. Cut-off read from the data, not from the text of the source, for most assays here: actives have a measured EC50 and inactives only a lower limit. Bounds are passed on as bounds.

Assay [1] can be described thus: cytotoxicity in HPDE-C7 cells, cell-based, fluorescence, HTS (AID 430). It is filed as functional. The note with it: Homo sapiens.
A short description of assay [2]: cytotoxicity in KRAS-transformed pancreatic duct cells, primary screen, cell-based, fluorescence, HTS (AID 431).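 Note: cell line used: HPDE-C7K.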 In kind it is functional. The note with it: Homo sapiens.
In assay [3] the target is T1, Aspartyl aminopeptidase (Plasmodium falciparum 3D7, UniProt Q8I2J3).
T1 sequence (Q8I2J3 whole entry): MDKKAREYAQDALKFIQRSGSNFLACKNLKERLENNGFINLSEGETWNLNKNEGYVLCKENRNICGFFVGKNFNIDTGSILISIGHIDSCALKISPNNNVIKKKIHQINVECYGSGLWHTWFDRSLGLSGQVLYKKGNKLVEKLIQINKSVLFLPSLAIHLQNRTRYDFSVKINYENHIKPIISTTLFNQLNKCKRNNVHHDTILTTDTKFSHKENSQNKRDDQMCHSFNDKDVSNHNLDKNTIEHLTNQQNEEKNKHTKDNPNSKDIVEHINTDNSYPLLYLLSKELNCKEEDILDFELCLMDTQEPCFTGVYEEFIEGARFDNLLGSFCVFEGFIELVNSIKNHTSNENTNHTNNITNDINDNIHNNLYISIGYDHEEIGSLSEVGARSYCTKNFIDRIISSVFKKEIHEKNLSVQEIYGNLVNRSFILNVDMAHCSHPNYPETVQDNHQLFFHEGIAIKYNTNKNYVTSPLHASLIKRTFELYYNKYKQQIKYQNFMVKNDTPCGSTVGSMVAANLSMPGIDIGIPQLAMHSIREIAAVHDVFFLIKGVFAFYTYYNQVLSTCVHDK

For assay [4], the target named is Procathepsin L (Homo sapiens, UniProt P07711).
Assay [5] is described as follows: Luminescence Cell-Based Dose Response to Identify Activators of 5'UTR Stem-Loop Driven Prion Protein mRNA Translation in H4-C Neuroglioblastoma Cells. [Related pubchem assays: 1829 (Project Summary), 1814 (Primary HTS)]. It is filed as functional.
Assay [6] relates to H4. Briefly: Luminescence Cell-Based Dose Response HTS to Identify Activators of 5'UTR Stem-Loop Driven Prion Protein mRNA Translation in H4 Neuroglioblastoma Cells. [Related pubchem assays: 1829 (Project Summary), 1814 (Primary HTS)]. It is filed as functional. The conditions noted are these: Homo sapiens.
Assay [7] is described as follows: Luminescence Cell-Based Dose Response to Identify Activators of Luciferase Translation or Activity in H4-C Neuroglioblastoma Cells. [Related pubchem assays: 1829 (Project Summary), 1814 (Primary HTS)]. In kind it is functional.
The nature of assay [8]: Luminescence Cell-Based Dose Response HTS to Identify Activators of Luciferase Translation or Activity in H4 […] Cells. [Related pubchem assays: 1829 (Project Summary), 1814 (Primary HTS)]. In kind it is functional.
Assay [9] is described as follows: Luminescence Cell-Based Dose Confirmation to Identify Activators of 5'UTR Stem-Loop Driven Alpha-Synuclein mRNA Translation in H4 Neuroglioblastoma Cells. [Related pubchem assays: 1829 (Project Summary), 1814 (Primary HTS)]. It is filed as functional.
Assay [10] can be described thus: Luminescence Cell-Based Dose Confirmation HTS to Identify Activators of 5'UTR Stem-Loop Driven Alpha-Synuclein mRNA Translation in H4 Neuroglioblastoma Cells. [Related pubchem assays: 1829 (Project Summary), 1814 (Primary HTS)]. In kind it is functional.
Assay [11] deals with Luciferin 4-monooxygenase (Photinus pyralis, UniProt P08659). Briefly: firefly luciferase enzyme inhibitors, dose response, biochemical, luminescence (AID 1891).
A short description of assay [12]: Vero E6 cell cytotoxicity, dose response, cytotoxicity control for non-replicating M. tuberculosis project, secondary assay (AID 492998). The conditions noted are these: Vero C1008. It is filed as functional, VeroE6.
For assay [13], the system named is Vero. The assay can be described thus: cells. It is filed as functional. The conditions noted are these: Chlorocebus sabaeus.
The nature of assay [14]: cells. It is filed as functional.
For assay [15], the target named is T2, Replicative DNA helicase DnaB (Mycobacterium tuberculosis, UniProt P9WMR3).
T2 sequence (P9WMR3 whole entry): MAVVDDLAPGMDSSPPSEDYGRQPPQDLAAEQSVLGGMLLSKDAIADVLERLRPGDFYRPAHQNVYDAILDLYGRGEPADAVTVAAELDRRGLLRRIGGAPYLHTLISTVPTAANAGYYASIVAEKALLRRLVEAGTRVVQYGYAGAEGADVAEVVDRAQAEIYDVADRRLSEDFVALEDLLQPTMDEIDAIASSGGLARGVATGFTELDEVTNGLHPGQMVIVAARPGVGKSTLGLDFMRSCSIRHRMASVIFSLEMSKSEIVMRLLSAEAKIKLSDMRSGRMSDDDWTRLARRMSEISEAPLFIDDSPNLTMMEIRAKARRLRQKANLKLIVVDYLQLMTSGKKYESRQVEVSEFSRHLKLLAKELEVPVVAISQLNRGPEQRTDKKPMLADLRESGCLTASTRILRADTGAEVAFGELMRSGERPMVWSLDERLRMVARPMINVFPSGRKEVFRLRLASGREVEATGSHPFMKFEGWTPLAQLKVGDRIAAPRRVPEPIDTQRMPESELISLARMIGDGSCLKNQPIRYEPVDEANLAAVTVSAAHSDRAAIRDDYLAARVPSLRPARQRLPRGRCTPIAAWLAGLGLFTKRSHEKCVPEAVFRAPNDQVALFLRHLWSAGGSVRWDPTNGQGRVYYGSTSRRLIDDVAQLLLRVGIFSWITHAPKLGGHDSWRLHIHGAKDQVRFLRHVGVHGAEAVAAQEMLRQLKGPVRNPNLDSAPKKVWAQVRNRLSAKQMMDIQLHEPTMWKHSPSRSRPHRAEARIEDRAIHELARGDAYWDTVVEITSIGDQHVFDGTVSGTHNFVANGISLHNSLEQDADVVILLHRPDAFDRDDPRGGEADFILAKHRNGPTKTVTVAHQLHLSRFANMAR
Briefly: DnaB intein splicing inhibitors, dose response, biochemical, cell-free fluorescence (AID 449749). It is filed as functional.

The nature of assay [16]: growth suppression of PTEN-null colon cells, dose response, cell-based, HCT116 PTEN knockout (AID 1047).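 Note: HCT116 colon tumor cells with PTEN knocked out; cells exposed to compound for 60 hours before readout; potency for loss of cell viability measured by luminescence.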 It is filed as functional.
Assay [17] in a line: THP-1 cell cytotoxicity, dose response, cytotoxicity control for non-replicating M. tuberculosis project (AID 489025). It is filed as functional.
Assay [18] in a line: Luminescence Cell-Based Dose Confirmation HTS to Identify Inhibitors of Platelet Dense Granule Release. [Related pubchem assays: 1663 (Primary HTS), 1678 (Summary of Project)]. In kind it is functional.
The target in assay [19] is T3, Protein RecA (Mycobacterium tuberculosis, UniProt P9WHJ3).
T3 sequence (P9WHJ3 whole entry): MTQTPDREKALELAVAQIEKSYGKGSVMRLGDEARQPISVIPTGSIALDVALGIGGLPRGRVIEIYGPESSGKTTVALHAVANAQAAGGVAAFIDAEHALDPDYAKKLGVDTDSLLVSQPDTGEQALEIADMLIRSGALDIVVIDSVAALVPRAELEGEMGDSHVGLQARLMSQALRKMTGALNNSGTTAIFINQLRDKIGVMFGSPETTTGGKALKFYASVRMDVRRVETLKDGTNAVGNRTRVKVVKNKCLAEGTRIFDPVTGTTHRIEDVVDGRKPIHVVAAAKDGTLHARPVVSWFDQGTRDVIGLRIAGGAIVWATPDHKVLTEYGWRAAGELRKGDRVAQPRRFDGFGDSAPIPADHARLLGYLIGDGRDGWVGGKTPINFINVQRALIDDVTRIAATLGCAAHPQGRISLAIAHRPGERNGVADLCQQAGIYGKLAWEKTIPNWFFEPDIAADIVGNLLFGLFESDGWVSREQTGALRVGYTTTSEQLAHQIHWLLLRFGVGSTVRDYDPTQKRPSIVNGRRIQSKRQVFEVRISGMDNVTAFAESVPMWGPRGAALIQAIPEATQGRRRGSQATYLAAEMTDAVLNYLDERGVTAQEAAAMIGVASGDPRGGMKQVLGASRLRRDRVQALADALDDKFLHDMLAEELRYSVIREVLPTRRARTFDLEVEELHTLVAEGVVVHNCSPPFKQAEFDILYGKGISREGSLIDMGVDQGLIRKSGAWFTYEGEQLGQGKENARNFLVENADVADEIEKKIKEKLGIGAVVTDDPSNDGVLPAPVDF
Briefly: Fluorescence Cell-Free Homogeneous Dose Retest to Identify Inhibitors of RecA-Intein Splicing Activity. [Related pubchem assays (depositor defined):AID2097, AID2223, AID489010, AID492950]. It is filed as functional.

Assay [20] can be described thus: growth suppression of beta-catenin-knockout colon cells, dose response, cell-based, HCT116, human colon tumor (AID 1045).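 Note: HCT116 colon tumor cells with beta catenin knocked out; cells exposed to compound for 60 hours.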 It is filed as functional.
The target in assay [21] is T4, Microphthalmia-associated transcription factor (Homo sapiens, UniProt O75030).
T4 sequence (O75030 whole entry): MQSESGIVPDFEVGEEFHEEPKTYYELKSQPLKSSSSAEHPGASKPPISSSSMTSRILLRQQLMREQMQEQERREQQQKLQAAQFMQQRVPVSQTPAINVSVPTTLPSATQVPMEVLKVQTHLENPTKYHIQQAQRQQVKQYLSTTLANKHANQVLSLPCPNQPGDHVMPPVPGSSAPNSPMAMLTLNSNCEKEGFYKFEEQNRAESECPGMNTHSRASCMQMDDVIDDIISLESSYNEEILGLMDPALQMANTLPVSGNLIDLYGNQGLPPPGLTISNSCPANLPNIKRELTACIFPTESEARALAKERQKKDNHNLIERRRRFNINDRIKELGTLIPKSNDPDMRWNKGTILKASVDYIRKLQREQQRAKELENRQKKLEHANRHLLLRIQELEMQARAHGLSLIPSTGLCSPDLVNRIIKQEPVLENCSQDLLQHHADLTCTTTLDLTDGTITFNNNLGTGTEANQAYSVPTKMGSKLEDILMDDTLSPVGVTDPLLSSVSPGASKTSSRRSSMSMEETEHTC
The assay can be described thus: TRPM1 promoter luciferase signal decrease, dose response, MITF inhibitor project, cell-based, SK-MEL-5, cherry-picked, set 3 (AID 493073).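 Note: SK-MEL-5 melanoma cells with luciferase driven by the MITF target TRPM1 promoter.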 In kind it is functional.

Procathepsin L, sequence (P07711 whole entry): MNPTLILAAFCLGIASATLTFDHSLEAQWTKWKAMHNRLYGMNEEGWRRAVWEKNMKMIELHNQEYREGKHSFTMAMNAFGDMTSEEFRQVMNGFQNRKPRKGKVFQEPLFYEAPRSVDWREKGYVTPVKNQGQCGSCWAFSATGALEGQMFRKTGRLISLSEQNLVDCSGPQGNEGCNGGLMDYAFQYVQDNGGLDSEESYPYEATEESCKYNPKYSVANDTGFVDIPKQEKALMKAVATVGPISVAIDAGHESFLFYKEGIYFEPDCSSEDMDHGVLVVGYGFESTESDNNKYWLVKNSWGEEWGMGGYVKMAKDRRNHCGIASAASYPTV
Luciferin 4-monooxygenase, sequence (P08659 whole entry): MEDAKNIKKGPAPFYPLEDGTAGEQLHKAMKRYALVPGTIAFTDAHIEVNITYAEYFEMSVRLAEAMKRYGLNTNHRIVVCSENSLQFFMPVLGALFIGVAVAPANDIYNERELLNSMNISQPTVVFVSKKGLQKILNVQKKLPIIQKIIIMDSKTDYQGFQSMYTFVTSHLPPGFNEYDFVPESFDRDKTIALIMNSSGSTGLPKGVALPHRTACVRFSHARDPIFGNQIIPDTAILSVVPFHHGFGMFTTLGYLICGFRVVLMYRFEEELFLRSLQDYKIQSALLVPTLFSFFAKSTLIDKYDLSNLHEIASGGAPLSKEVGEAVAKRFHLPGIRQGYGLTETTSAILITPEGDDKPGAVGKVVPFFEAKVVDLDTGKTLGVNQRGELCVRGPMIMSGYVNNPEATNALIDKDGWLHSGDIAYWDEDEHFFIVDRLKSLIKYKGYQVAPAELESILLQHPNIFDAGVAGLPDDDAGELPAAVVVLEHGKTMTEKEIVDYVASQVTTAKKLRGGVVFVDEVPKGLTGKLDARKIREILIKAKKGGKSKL

Usually EC50 stands for the concentration giving half of the maximal effect. `CCCCc1ccc(Nc2nc(O)cc(CCC)n2)cc1`: the half-maximal effective concentration (EC50) in [1] is 10.8 µM (active); in assay [2] it was 6.75 µM (active).

A word on the IC50: it is the concentration at which inhibition is half-maximal. Take `CC1(C)C2([N+](=O)[O-])CN3CC1([N+](=O)[O-])CN(C2)C3c1ccc(O)c(O)c1` (configuration not stated): the IC50 in [3] was 1.19 µM (active); in [4], > 59.6 µM (not active).

For the molecule `Cc1[nH]c2ccccc2c1C(O)CN1CCN(c2cccc(C(F)(F)F)c2)CC1` (configuration not stated), the 50% effective concentration (EC50) in assay [1] was 7.14 µM (active); in assay [2], 6.67 µM (active).

Regarding `COCCn1c(C)cc(C(=O)COC(=O)c2ccc3ncsc3c2)c1C`, the half-maximal effective concentration (EC50) was 1.09 µM (active) in [5]; 0.132 µM (active) in [6]; 0.343 µM (active) in assay [7]; 0.155 µM (active) in [8]; 0.364 µM (active) in assay [9].

For the molecule `O=C(Nc1cccc(Cl)c1Cl)Nn1cnnc1`, the half-maximal inhibitory concentration (IC50) in [3] was 0.631 µM (active); in [4], > 59.6 µM (not active).

Regarding `Cc1cc(C(=O)CSc2n[nH]c(N)n2)c(C)n1-c1ccccc1`, the EC50 is 1.03 µM (active) in [5]; 5.58 µM (active) in assay [6]; 0.687 µM (active) in assay [7]; < 0.1 µM (active) in assay [8]; 6.75 µM (active) in [9].

For `N#C/C(=C\c1ccc[nH]1)Sc1nc2ccccc2s1`, the EC50 in [1] and in assay [2] was > 20 µM (not active) each time.

As for `CC(NC(=O)Nc1ccc2c(c1)OCO2)C1CCCO1` (configuration not stated), the EC50 in assay [5] was > 12 µM (not active); in [6], 33 µM (active); in assay [10], < 0.1 µM (active); in [7], > 12 µM (not active); in assay [8], 8.12 µM (active); in [9] it was > 12 µM (not active).

In general, CC50 refers to the concentration that lowers cell viability or growth by half. A word on the AC50: it is the concentration giving half of the maximal activity seen. For the molecule `Cc1cccc(OCCN2CSC(=S)N(C)C2)c1`, the EC50 was > 112 µM (not active) in assay [11]; 7.66 µM (active) in [16]; 6.23 µM (active) in assay [1]; 6.24 µM (active) in assay [2]; > 112 µM (not active) in assay [18]; 12.5 µM (active) in [19]. Moreover, in [20], the EC50 was 4.21 µM (active). Also, the CC50 in assay [12] was 6.85 µM (active); in assay [13], 7.62 µM (active); in [17], 11.8 µM (active). In [14], the 50% inhibitory concentration (IC50) was 10.4 µM (active). Besides, the AC50 in [15] was 14.7 µM (active).

With `Cc1ccc(N=C(S)Nn2cnnc2)c(C)c1`, the results for the IC50 in assay [3] and in [4] were 2.11 µM (active) and > 59.6 µM (not active), respectively.

Regarding `O=C1OC(c2ccccc2)=C/C1=C/N1CCCCC1`, the 50% effective concentration (EC50) in [5] is 0.426 µM (active); in assay [6], 0.142 µM (active); in [10], < 0.1 µM (active); in assay [7], 0.352 µM (active); in assay [8] it was 0.129 µM (inconclusive); in assay [9] it was 0.306 µM (active).

As to `Cc1cc(C)cc(C(=O)n2cnnc2N)c1`, the IC50 in assay [3] was 2.89 µM (active); in assay [4] it was > 59.6 µM (not active).

`COc1cc2c(cc1O)C(SC)=NC(C)(C)C2`: the EC50 in assay [1] is 14.1 µM (active); in assay [2], 13.6 µM (active). Moreover, the AC50 in [21] was 11.3 µM (active).

Take `O=C(/N=C1\SCC(=O)N1c1ccccc1Cl)c1ccccc1`: the EC50 in assay [5] was 1.86 µM (active); in assay [6], 50.5 µM (active); in [10], < 0.1 µM (active); in assay [7], > 12 µM (not active); in [8], 11.1 µM (active); in [9], 0.717 µM (active).
